Test results as given in patent US20240295566A1, “METHOD FOR DIAGNOSING AND TREATING METABOLIC DISORDERS” (Centre for Chinese Herbal Medicine Drug Development Limited, priority 2023, published 2024).

Legend:
[1] = system: insulin-induced AKT phosphorylation; assay: Western blot of insulin signaling (AKT phosphorylation) in 3T3-L1 cells; assay type: cell-based; conditions: insulin 20 nM; for insulin-induced AKT phosphorylation / inhibitory effects of tryptamine and phenethylamine on insulin-stimulated AKT phosphorylation: 3T3-L1 cells; for insulin-induced AKT phosphorylation: precursors and metabolites at 100 μM; for insulin signaling: 3T3-L1 adipocytes, 25 μM; for inhibitory effects of tryptamine and phenethylamine on insulin-stimulated AKT phosphorylation: tryptamine or phenethylamine 25 μM, inhibitor 20 μM
Protocol: (§1) For the glucose uptake assay, 3T3-L1 cells were serum- and glucose-starved for 3 hours and then incubated with glucose, FBS, insulin and tryptamine for 30 min as indicated. To assess the effect of tryptamine on insulin signaling, 3T3-L1 cells were pre-treated with or without tryptamine, ERK inhibitor or TAAR1 antagonist EPPTB, and then treated with insulin at the indicated concentration. The effect of IAA on insulin signaling was evaluated by treating 3T3-L1 cells with or without IAA followed by insulin for the indicated times. Tryptamine, U0126 and EPPTB were dissolved in DMSO at 100 mM as a stock solution. For cAMP measurements, 3T3-L1 cells were pre-treated with or without EPPTB for 60 min and then treated with tryptamine for the indicated times.
(§2) Frozen tissues and harvested cells were lysed in RIPA buffer with a protease inhibitor cocktail. For western blotting, the cell lysates and tissue lysates were centrifuged at 15,000 rpm for 15 min at 4° C. The supernatant was mixed with 5× loading buffer and heated at 98° C. on a dry bath for 10 min. The target proteins were then detected in the samples as per manufacturer instructions. The blots were incubated with HRP-linked anti-rabbit IgG or anti-mouse IgG and reacted with enhanced chemiluminescence. The quantification of protein bands from western blots was analyzed using Image J.

[2] = Oral glucose tolerance test (OGTT) in mice; assay type: in vivo, mouse; conditions: for glucose tolerance (OGTT): normal mice, substance given alone (tryptamine 0.4, 2, 10 mg/kg; phenethylamine 1, 2, 5 mg/kg i.p.); for glucose tolerance in control mice (OGTT): control mice without tryptamine, inhibitor alone; for tryptamine-induced glucose intolerance (OGTT): tryptamine (10 mg/kg)-treated mice plus inhibitor i.p. (U0126 20 mg/kg, PD98059 10 mg/kg, EPPTB 10 mg/kg)
Protocol: (§3) For the oral glucose tolerance test (OGTT), mice were fasted for 12 hours (overnight) and administered with tryptamine, ERK inhibitors, TAAR1 antagonist or IAA at indicated dosages. After 30 min, mice were given glucose at a dosage of 2 g/kg. Blood samples were collected from the tail vein for glucose measurement using Accu-Chek glucose meters at 0, 15, 30, 60, 90 and 120 min after the glucose challenge. For the insulin tolerance test (ITT), mice were fasted for 4 hours and administered with tryptamine, ERK inhibitors or a TAAR1 antagonist at indicated dosages. After 30 min, insulin (1 U/kg) was injected intraperitoneally into the mice. Blood glucose levels were measured as per OGTT. For the measurement of serum insulin and TG, serum was collected 120 min after the mice were treated with tryptamine.

[3] = Insulin tolerance test (ITT) in mice; assay type: in vivo, mouse; conditions: for insulin sensitivity (ITT): normal mice, substance given alone (tryptamine 0.4, 2, 10 mg/kg; phenethylamine 1, 2, 5 mg/kg i.p.); for insulin sensitivity in control mice (ITT): control mice without tryptamine, inhibitor alone; for tryptamine-induced insulin resistance (ITT): tryptamine (10 mg/kg)-treated mice plus inhibitor i.p. (U0126 20 mg/kg, PD98059 10 mg/kg, EPPTB 10 mg/kg)
Protocol: as §3

[4] = system: insulin-induced Akt phosphorylation; assay: Western blot of insulin-stimulated AKT phosphorylation in WAT, liver and skeletal muscle lysates from mice; assay type: in vivo, mouse; conditions: insulin 1 U/kg; for insulin-induced Akt phosphorylation in major metabolic tissues: WAT, liver, skeletal muscle, tryptamine 10 mg/kg or phenethylamine 5 mg/kg i.p.; for inhibitory effects of tryptamine on insulin-stimulated AKT phosphorylation in tissues: tryptamine 10 mg/kg plus inhibitor (U0126 20 mg/kg or EPPTB 10 mg/kg), WAT and liver lysates
Protocol: as §2

[5] = system: ERK1/2 phosphorylation; assay: Western blot of ERK activation in WAT, liver and skeletal muscle lysates from mice; assay type: in vivo, mouse; conditions: for tryptamine-induced ERK phosphorylation in tissues: tryptamine 10 mg/kg plus inhibitor (U0126 20 mg/kg or EPPTB 10 mg/kg), WAT and liver lysates
Protocol: as §2

[6] = Serum TG level in mice; assay type: in vivo, mouse; conditions: normal mice, i.p.
Protocol: as §3

[7] = Intravenous glucose tolerance test (IVGTT) in monkeys; assay type: in vivo, Macaca fascicularis; conditions: normal monkeys, single dose 10 mg/kg via oral gavage
[8] = Serum insulin level in monkeys; assay type: in vivo, Macaca fascicularis; conditions: normal monkeys, single dose 10 mg/kg via oral gavage
Protocol: The first crab-eating macaques (Macaca fascicularis) metabolomics study is performed with ethics approval (No. YMB1704) by Yunnan Yinmore Biotechnology company (Kunming, China). The diagnosis of diabetes for monkeys was based on published criteria. Specifically, age-matched (10-23 years old) monkeys were categorized as normal (Define as FBG<75 mg/dL and Hb1Ac<3.5%), pre-diabetes (FBG 80-130 mg/dL and Hb1Ac 4.0%-6.0%) and diabetes (FBG>130 mg/dL and Hb1Ac>6.0%) (n=26 for each group). Biological samples including serum and feces were collected and stored at −80° C. until analysis. The second crab-eating macaques (n=5) intervention study is performed with ethics approval (No. HZ2021047) by Huazhen Biosciences company (Guangzhou, China). Biochemical parameters including OGTT and serum insulin level were measured before and after tryptamine treatment. No crab-eating macaques were treated with anti-diabetic medication during these studies.
To understand the role of tryptamine and phenethylamine in the pathophysiology of insulin resistance, tryptamine and phenethylamine were administered to normal mice within the pathophysiological range detected in the fecal samples of T2D subjects. […]

[9] = system: ERK1/2 phosphorylation; assay: Western blot of ERK activation in 3T3-L1 cells; assay type: cell-based; conditions: for ERK1/2 phosphorylation: 25 μM; for ERK phosphorylation induced by tryptamine and phenethylamine: tryptamine or phenethylamine 25 μM, pre-treatment with inhibitor 20 μM
Protocol: as §1, with “3T3-L1 adipocytes (ATCC CL-173) were cultured and maintained in DMEM with 10% (v/v) FBS. For the” for “For the”
as §2

[10] = system: 3T3-L1 adipocytes; assay: Glucose uptake assay in 3T3-L1 cells; assay type: cell-based; conditions: 5, 10 and 25 μM
Protocol: as §1, with “3T3-L1 adipocytes (ATCC CL-173) were cultured and maintained in DMEM with 10% (v/v) FBS. For the” for “For the”

[11] = system: insulin signaling-related proteins; assay: Phospho-proteomics study of mouse tissue; assay type: in vivo; conditions: mice, insulin-sensitive tissues (WAT), tryptamine treatment
Protocol: Mice were fasted for 4 hours and orally administered with tryptamine or vehicle. The WAT tissues were collected for the phosphoproteomics study. Mice tissue samples used for the TMT-labeled phosphoproteomics study were prepared as previously reported. An Easy nLC system (Thermo Fisher Scientific) with an Acclaim PepMap RSLC column (50 μm×15 cm) was used to separate the TMT-labelled peptides. The mobile phase used in LC-MS-Orbitrap was A: water with 0.1% formic acid and B: 80% acetonitrile, 20% water with 0.1% formic acid. The elution gradient was set as 0-5 min in 0-6% buffer B, 5-45 min in 6-28% buffer B, 45-50 min in 28%-38% buffer B, 50-55 min 38-100% buffer B and maintained during […] in 100% buffer B. The obtained MS/MS spectra were processed by Proteome Discoverer (Thermo Fisher Scientific) and searched using MASCOT engine 2.6. All protein sequences were aligned to the Mus musculus database downloaded from UniProt (http://www.uniprot.org). The proteins with a fold change>1.2 or <0.8 and a p-value<0.05 were considered as differentially expressed proteins.

[12] = Tissue distribution of tryptamine; conditions: mice, oral gavage of tryptamine 5 mg/kg, within 15 min
Protocol: (§4) Tryptamine at a dosage of 5 mg/kg (dissolved in 0.5% CMC-Na) was orally administered to mice. After 15 min, mice were euthanized by isoflurane and sacrificed by cervical dislocation. Serum, liver, skeletal muscle and WAT were collected and stored at −80° C. until analysis. About 80 mg of biological tissues were extracted with a 20× volume of 70% methanol (m/v) and then homogenized with steel beads. The samples were then centrifuged at 14,000 rpm at 4° C. for 15 min. About 200 μL of the supernatant was transferred to new tubes for LC-MS analysis.

[13] = mouse, in vivo, 15 min
Protocol: as §4

[14] = antibiotics-treated mice colonized with R. gnavus ATCC 29149, EPPTB 10 mg/kg i.p.

For `O=C(O)Cc1ccccc1` [phenylacetic acid], the “insulin-induced AKT phosphorylation” value [1] was “did not alter”.

With `NCCc1c[nH]c2ccccc12` [tryptamine] the “glucose tolerance (OGTT)” value [2] was “remarkably inhibitory effects”, the “insulin sensitivity (ITT)” value [3] was “remarkably inhibitory effects” and the “insulin-induced Akt phosphorylation in major metabolic tissues” value [4] was “significantly suppressed”. The “ERK1/2 phosphorylation in insulin-sensitive tissues” value ([5]; tryptamine 10 mg/kg i.p., WAT, liver, skeletal muscle) was “upregulated”, the “serum TG levels” value [6] was “significant elevation” and the “blood glucose levels in the glucose challenge (IVGTT)” value [7] was “higher blood glucose levels”. The serum insulin levels [8] was “significant elevation”, the insulin signaling [1] was “inhibited insulin signaling in a time-dependent manner” and the ERK1/2 phosphorylation [9] was “induced ERK1/2 phosphorylation in a time-dependent manner”. For the same molecule, the basal glucose uptake [10] was “inhibited basal glucose uptake in a dose-dependent manner”, the “insulin signaling-related phospho-proteins (HSL, ERK, SH3D5)” value [11] was “upregulated” and the “metabolite indole-3-acetic acid (IAA) levels in serum and insulin-sensitive tissues” value [12] was “significantly increased”. For the same molecule, the “tryptamine levels in serum and insulin-sensitive tissues” value ([12]; serum, WAT, liver, skeletal muscle) was “significantly increased”.

In the case of `N[C@@H](Cc1ccccc1)C(=O)O` [phenylalanine], the “insulin-induced AKT phosphorylation” value [1] was “did not alter”.

For `N[C@@H](Cc1c[nH]c2ccccc12)C(=O)O` [tryptophan], the “insulin-induced AKT phosphorylation” value [1] was “did not alter”.

With `NCCc1ccccc1` [phenethylamine] the “glucose tolerance (OGTT)” value [2] was “remarkably inhibitory effects”, the “insulin sensitivity (ITT)” value [3] was “remarkably inhibitory effects” and the “insulin-induced Akt phosphorylation in major metabolic tissues” value [4] was “significantly suppressed”. For the same molecule, the “serum TG levels” value [6] was “significant elevation”, the insulin signaling [1] was “inhibited insulin signaling in a time-dependent manner” and the ERK1/2 phosphorylation [9] was “induced ERK1/2 phosphorylation in a time-dependent manner”.

In the case of `N#CC(=C(/N)Sc1ccccc1N)/C(C#N)=C(\N)Sc1ccccc1N` [U0126], the “glucose tolerance in control mice (OGTT)” value [2] was “negligible effects”, the “tryptamine-induced glucose intolerance (OGTT)” value [2] was “significantly improved” and the “insulin sensitivity in control mice (ITT)” value [3] was “negligible effects”. The “tryptamine-induced insulin resistance (ITT)” value [3] was “significantly improved”, the “inhibitory effects of tryptamine on insulin-stimulated AKT phosphorylation in tissues” value [4] was “abolished the inhibitory effects” and the “tryptamine-induced ERK phosphorylation in tissues” value [5] was “significantly downregulated”. The “inhibitory effects of tryptamine and phenethylamine on insulin-stimulated AKT phosphorylation” value [1] was “significantly suppressed the inhibitory effects” and the “ERK phosphorylation induced by tryptamine and phenethylamine” value [9] was “blocked”.

For `O=C(O)Cc1c[nH]c2ccccc12` [indole-3-acetic acid], the “glucose tolerance (OGTT)” value [2] was “did not impair”, the “insulin sensitivity (ITT)” value [3] was “did not impair” and the “insulin-induced AKT phosphorylation” value [1] was “did not alter”. For the same molecule, the “IAA concentration relative to that of tryptamine in serum” value [13] was 40-100 fold.

With `COc1cccc(-c2cc(=O)c3ccccc3o2)c1N` [PD98059] the “glucose tolerance in control mice (OGTT)” value [2] was “negligible effects”, the “tryptamine-induced glucose intolerance (OGTT)” value [2] was “significantly improved” and the “insulin sensitivity in control mice (ITT)” value [3] was “negligible effects”. The “tryptamine-induced insulin resistance (ITT)” value [3] was “significantly improved”.

In the case of `CCOc1cccc(NC(=O)c2ccc(N3CCCC3)c(C(F)(F)F)c2)c1` [EPPTB, N-(3-ethoxy-phenyl)-4-pyrrolidin-1-yl-3-trifluoromethyl-benzamide], the “R. gnavus-induced impaired glucose tolerance (OGTT)” value [2, 14] was “partially abrogated”, the “glucose tolerance in control mice (OGTT)” value [2] was “did not affect” and the “tryptamine-induced glucose intolerance (OGTT)” value [2] was “significantly reduced”. For the same molecule, the “R. gnavus-induced lower insulin sensitivity (ITT)” value [3, 14] was “partially abrogated”, the “insulin sensitivity in control mice (ITT)” value [3] was “did not affect” and the “tryptamine-induced insulin resistance (ITT)” value [3] was “significantly reduced”. The “inhibitory effects of tryptamine on insulin-stimulated AKT phosphorylation in tissues” value [4] was “abolished the inhibitory effects”, the “tryptamine-induced ERK phosphorylation in tissues” value [5] was “downregulated” and the “inhibitory effects of tryptamine and phenethylamine on insulin-stimulated AKT phosphorylation” value [1] was “reversed the inhibitory effects”. For the same molecule, the “ERK phosphorylation induced by tryptamine and phenethylamine” value [9] was “significantly downregulated”.
